Data taken from article PMC7576482, “Inhibitory Activity of Quercetin 3-O-Arabinofuranoside and 2-Oxopomolic Acid Derived from Malus domestica on Soluble Epoxide Hydrolase” (Molecules, 2020).
Values joined by “and” are separate entries in the source; they are usually repeats but may differ in a detail not shown here. Equal entries are not always repeated.

Key:
[1] = target: T1, soluble epoxide hydrolase (sEH) (Homo sapiens, UniProt P34913); assay: sEH assay (PHOME substrate, fluorescence); type: biochemical; settings: triplicated experiments; 37 °C, pH 7.0, PHOME substrate; read-out: IC50 Value, inhibitory activity on sEH
T1 construct: purchased Cayman (Ann Arbor, MI, USA) 10011669
T1 sequence (P34913 1-555): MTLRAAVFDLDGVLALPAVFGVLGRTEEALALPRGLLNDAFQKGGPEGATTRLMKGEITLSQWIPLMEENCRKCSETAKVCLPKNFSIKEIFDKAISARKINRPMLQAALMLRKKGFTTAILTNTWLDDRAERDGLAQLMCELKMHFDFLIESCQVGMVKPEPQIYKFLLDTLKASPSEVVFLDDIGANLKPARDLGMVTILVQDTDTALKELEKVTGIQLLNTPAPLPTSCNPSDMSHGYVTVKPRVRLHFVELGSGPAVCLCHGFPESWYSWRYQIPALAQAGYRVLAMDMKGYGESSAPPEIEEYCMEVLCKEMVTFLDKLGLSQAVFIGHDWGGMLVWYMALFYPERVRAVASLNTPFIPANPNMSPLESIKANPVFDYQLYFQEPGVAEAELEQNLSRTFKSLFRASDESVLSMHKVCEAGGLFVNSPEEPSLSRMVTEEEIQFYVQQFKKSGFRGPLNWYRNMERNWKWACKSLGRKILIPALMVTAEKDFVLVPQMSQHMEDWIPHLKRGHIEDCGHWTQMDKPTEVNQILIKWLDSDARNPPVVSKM
Protocol: The inhibitory activity of each concentration of compound was calculated based on the difference in enzyme products with and without the presence of the compound using Equation (1). […] To calculate the half-maximal inhibitory concentration of the inhibitors (IC50), inhibition rate values were fitted using Equation (2).
(§1) The assays were carried out at 37 °C in 0.025-M bis-tris-HCL buffer, pH 7.0, containing 0.1% Bovine Serum Albumin B. PHOME (~2.6 μM) was used as a substrate. The final volume of tests was […] in ~10 ng/mL sEH. The products were monitored at 330 nm of excitation and 465 nm emission for 40 min.
The inhibition rate was calculated according to the following equations:Inhibition effect rate (%) = [(ΔC − ΔS)/ΔC] × 100(1) where ΔC and ΔS represent the gap of control and inhibitor during reaction, respectively. y = y0 + [(a × x)/(b + x)](2) where “y0” is the point on the axis of ordinates, “a” denotes the difference between the maximum and minimum values, and “b” refers to the “x” value at 50%.

[2] = target: T1, soluble epoxide hydrolase (sEH); assay: sEH enzyme kinetic study (Lineweaver-Burk and Dixon plots); type: biochemical; settings: for Ki: Dixon plots, read-out: ki (inhibition constant); for Binding Mode: Lineweaver-Burk plots
Protocol: The enzyme kinetic study was performed to find the binding position of the inhibitor into sEH. The initial velocity (v0) for the three different concentrations of inhibitors was calculated relative to the substrate concentrations (1.1, 1.5, 2.2, 3.1, 6.2, and 12.5 μM). The inverse of these concentrations and v0 values were used to construct Lineweaver-Burk plots.
As presented in Figure 2F–I and Table 1, the inhibition constant (ki) values were calculated by Dixon plots. Inhibitors 1–4 were calculated to be ki values ranging from 2.9 ± 0.8 μM to […]. Among them, inhibitor 4 had the strongest ki value of 2.9 ± 0.8 μM.
as §1

[3] = set-up: method as in PMID 19794443; settings: cited from earlier work

Structure (SMILES)	IC50 [1]	Ki [2] [µM]	Binding Mode [2]	solubility [3]
O=c1c(OC2O[C@H](CO)[C@@H](O)[C@@H]2O)c(-c2ccc(O)c(O)c2)oc2cc(O)cc(O)c12 (stereo in doubt) [Compound 1, quercetin 3-O-arabinofuranoside]	< 50 µM and 39.3 µM	39.5	Mixed	
O=C(O)CCCCCCCCCCCNC(=O)NC12CC3CC(CC(C3)C1)C2 [AUDA, 12-(3-adamantan-1-yl-ureido)dodecanoic acid]				low solubility
C[C@H]1[C@H](C)CC[C@]2(C(=O)O)CC[C@]3(C)C(=CC[C@@H]4[C@@]5(C)CC[C@H](O)C(C)(C)[C@@H]5CC[C@]43C)[C@H]12 [Compound 2, ursolic acid]	84.5 ± 9.5 µM	38.5	Noncompetitive	

Continued by falling Ki [2], values first:

IC50 [1]	Ki [2] [µM]	Binding Mode [2]	Structure (SMILES)	solubility [3]
51.3 ± 4.9 µM	34.6	Noncompetitive	C[C@H]1[C@H](C)CC[C@]2(C(=O)O)CC[C@]3(C)C(=CC[C@@H]4[C@@]5(C)C[C@@H](O)[C@H](O)C(C)(C)[C@@H]5CC[C@]43C)[C@H]12 [Compound 3, corosolic acid]	
< 50 µM and 11.4 µM	2.9	Noncompetitive	C[C@@H]1CC[C@]2(C(=O)O)CC[C@]3(C)C(=CC[C@@H]4[C@@]5(C)CC(=O)[C@H](O)C(C)(C)[C@@H]5CC[C@]43C)[C@@H]2[C@]1(C)O [Compound 4, 2-oxopomolic acid]	
